Results published in PMC12040169 (PLOS Biology, 2025).

Experiment: in vitro
Conditions: human, hela cells, % viability

Row | Structure (SMILES) | viability at 28.5 h, 10 µM [%] | viability at 28.5 h, 10 µM (bulk resorufin, single well) [%]
1 | O=c1ccc2cc(S(=O)(=O)Nc3ncc(Br)c4cccnc34)ccc2o1 [CBK073887] | 94 | –
2 | O=S(=O)(Nc1ncc(Br)c2cccnc12)c1ccc(Cl)c(Cl)c1 [CBK073888] | 89.5 | –
3 | Cc1nn(C)c(Cl)c1S(=O)(=O)Nc1ccc2cc(Br)cnc2n1 [CBK073892] | 78.3 | –
4 | COC(=O)c1cn(Cc2ccccc2)nn1 [CBK073903] | 98.1 | –
5 | COc1ccc([C@@]23CC[C@@H](NC(=O)Nc4cc(F)c(F)c(F)c4)C[C@@H]2N(C)CC3)c(F)c1OC [CBK073909T] | 90.6 | –
6 | Cc1ccc(C2(C)CC(C)(C)N(C(=O)CSc3nnc[nH]3)c3ccccc32)cc1 (stereo not drawn) [CBK073918] | 89.2 | –
7 | O=C1N=C(NC2CC3CCC2C3)SC12CCC2 (stereo not drawn) [CBK073933] | 96.2 | –
8 | Cc1oc(-c2ccccc2)nc1C(=O)N1CCCN(C)CC1 [CBK073940C] | 105 | –
9 | O=S(=O)(Nc1cc(O[C@@H]2CCNC2)c2occc2c1)c1cc(F)c(Br)cc1F [CBK073943C] | 92 | –
10 | CC(C)(C)c1ccc(C(=O)N2CCCCC2CO)cc1 (stereo not drawn) [CBK073951] | 86.4 | –
11 | COc1ccc2[nH]c3c(c2c1)CCNC31CCN(Cc2ccccc2)C1 (stereo not drawn) [CBK073952C] | 86.5 | –
12 | O=C1CCC(=O)N1CCOc1nccnc1N1CCNCC1 [CBK074030T] | 97.6 | –
13 | Cc1cccc(C(=O)N2CCCCC2C)c1 (stereo not drawn) [CBK074052] | 118 | –
14 | CC(C)C1OC(NCCN2CCOCC2)=NC1=O (stereo not drawn) [CBK074097T] | 91 | –
15 | CC1CCN(CC[C@H]2CCCN2S(=O)(=O)c2cccc(O)c2)CC1 [CBK074118C] | 112 | –
16 | Cc1cccnc1C(c1ccccc1)N(C)C(=O)C1CCN(C(=O)NCc2ccccc2)CC1 (stereo not drawn) [CBK074119] | 106 | –
17 | Cc1cccc(C(=O)N2CCCCC2CN(C)C)c1 (stereo not drawn) [CBK074171] | 81.7 | –
18 | CCOC(=O)c1sc(-c2ccccc2)nc1C [CBK074204] | 87.5 | –
19 | CCC1CCCCN1C(=O)c1cccs1 (stereo not drawn) [CBK074214] | 104 | –
20 | CCC1CCCCN1C(=O)c1ccc(-c2ccccc2)s1 (stereo not drawn) [CBK074215] | 96.5 | –
21 | CCOC(=O)C1CCN(C(=O)c2ccc(OC)cc2)CC1 [CBK074220] | 99.2 | –

Row | Structure (SMILES) | viability at 28.5 h, 10 µM [%] | viability at 28.5 h, 10 µM (bulk resorufin, single well) [%]
22 | O=C(c1ccc(OC(F)F)cc1)N1CCCCC1 [CBK074223] | 86.7 | –
23 | Oc1cc(-c2ccccc2Cl)[nH]n1 [CBK074226] | 95.6 | –
24 | CCCn1c(-c2ccccc2OC(F)(F)F)n[nH]c1=O [CBK074238] | 110 | –
25 | COc1cc(OC)cc(C(=O)N[C@@H]2CC[C@@]3(c4ccc(OC)c(OC)c4)CCN(C)[C@H]3C2)c1 [CBK074242T] | 115 | –
26 | COc1ccc(C(=O)N[C@@H]2CC[C@@]3(c4ccc(OC)c(OC)c4)CCN(C)[C@H]3C2)c(OC)c1 [CBK074247T] | 91.7 | –
27 | COc1ccc([C@@]23CC[C@@H](NC(=O)c4ccc5occc5c4)C[C@@H]2N(C)CC3)cc1OC [CBK074253T] | 99 | –
28 | O=C(c1cccc(C(F)(F)F)c1)N1CCCCCC1 [CBK074291] | 98.4 | –
29 | COc1ccc([C@@]23CCN(C(=O)Nc4ccc(F)c(F)c4F)C[C@@H]2CN(C)C3)cc1OC [CBK074305T] | 106 | –
30 | Nc1ncc(Br)nc1N[C@@H](CO)c1ccccc1 [CBK074321] | 102 | –
31 | CCCc1[nH]nc(O)c1Cc1ccccc1CS(=O)(=O)c1ccccc1 [CBK074347] | 87.8 | –
32 | Oc1nc(CN2CCN(Cc3ccc4c(c3)OCO4)CC2)nc2ccccc12 [CBK074355] | 110 | –
33 | O=C(CNS(=O)(=O)c1ccc(Br)cc1)N1CCN(Cc2ccc3c(c2)OCO3)CC1 [CBK074358] | 98.1 | –
34 | Cn1c(=O)c2c(nc(NCc3ccc4c(c3)OCO4)n2Cc2cccc(Cl)c2)n(C)c1=O [CBK074359] | 96.4 | –
35 | CCCC(=O)N1CCN(Cc2ccc3c(c2)OCO3)CC1 [CBK074367] | 92.7 | –
36 | O=C(CCCN1C(=O)c2cccc3cccc(c23)C1=O)N1CCN(Cc2ccc3c(c2)OCO3)CC1 [CBK074370] | 72.6 | –
37 | COc1ccccc1OCC(O)CN1CCN(C(=O)c2ccccc2)CC1 (stereo not drawn) [CBK074386C] | 111 | –
38 | Cc1cc(C(F)(F)F)nc2sc(C(=O)c3ccc4c(c3)OCO4)c(N)c12 [CBK074388] | 94.5 | –
39 | O=C(NC(NCc1ccc2c(c1)OCO2)(C(F)(F)F)C(F)(F)F)c1cccnc1 [CBK074397] | 78.8 | –
40 | COc1ccc(CN2CCN(Cc3cccnc3)CC2)cc1OC [CBK074409G] | 94.1 | –
41 | COc1cccc(N2C(=O)CC(N3CCN(Cc4ccc5c(c4)OCO5)CC3)C2=O)c1 (stereo not drawn) [CBK074411] | 93.1 | –
42 | O=C1c2cccc3cccc(c23)C(=O)N1CC1CCN(CC(O)COCC2COc3ccccc3O2)CC1 (stereo not drawn) [CBK074412C] | 100 | –

Row | Structure (SMILES) | viability at 28.5 h, 10 µM [%] | viability at 28.5 h, 10 µM (bulk resorufin, single well) [%]
43 | COc1c(S(=O)(=O)N2CCN(Cc3ccc4c(c3)OCO4)CC2)ccc(Cl)c1Cl [CBK074423] | 91.8 | –
44 | C=CCOc1c(CNc2cccc(C(=O)O)c2)cccc1OC [CBK074432] | 95.6 | –
45 | COc1ccc(S(=O)(=O)N2CCN(Cc3ccc4c(c3)OCO4)CC2)c(Cl)c1Cl [CBK074433] | 102 | –
46 | O=C(/C=C/c1ccc(Br)cc1)N1CCN(Cc2ccc3c(c2)OCO3)CC1 [CBK074434] | 91.5 | –
47 | CC(Oc1ccc(Cl)cc1Cl)C(=O)N1CCN(Cc2ccc3c(c2)OCO3)CC1 (stereo not drawn) [CBK074438] | 95.2 | –
48 | COc1cccc(/C=N/N2C(=O)c3ccc([N+](=O)[O-])cc3NC2c2cccc(OC)c2O)c1O (stereo not drawn) [CBK074439] | 91.3 | –
49 | CCOc1cc2c(cc1OCC)C(c1ccc(OC)c(O)c1)NCC2 (stereo not drawn) [CBK074443C] | 88.7 | –
50 | N#CCC(=O)N1CCN(Cc2ccc3c(c2)OCO3)CC1 [CBK074447] | 88.7 | –
51 | COc1cc(CN2CCN(Cc3cccc4ccccc34)CC2)c([N+](=O)[O-])cc1OC [CBK074450G] | 106 | –
52 | COc1ccc(NCc2cc(I)c(OCc3ccccc3)c(OC)c2)cc1 [CBK074452] | 106 | –
53 | COc1ccc(-c2csc(Nc3ccc(N)cc3)n2)cc1OC [CBK074456] | 83.4 | –
54 | Cc1ccc(CNc2oc(COc3ccc(Br)cc3)nc2C#N)cc1 [CBK074467] | 99.5 | –
55 | C=CCOc1ccc(CNc2cccc(C(=O)O)c2)cc1OC [CBK074468] | 98.5 | –
56 | COc1cc(CNc2ccc(N3CCCCC3)cc2)ccc1OCc1ccccc1F [CBK074472] | 95.5 | –
57 | COc1ccc(CNCc2cccc(OC)c2OC)cc1Br [CBK074479] | 113 | –
58 | COc1ccc(CN2CCN(S(C)(=O)=O)CC2)c(OC)c1OC [CBK074491] | 102 | –
59 | c1cc2c(cc1CCNCc1ccc3c(c1)OCO3)OCO2 [CBK074501G] | – | 98.9
60 | COc1cc(OC)c(OC)cc1CN1CCN(Cc2ccco2)CC1 [CBK074509G] | 92.9 | –
61 | COc1cc(CNc2ccc(N3CCOCC3)cc2)ccc1OCc1ccc(Cl)cc1Cl [CBK074516] | 93.1 | –
62 | COC(=O)c1ccc(CN2CCN(CCN3C(=O)c4cccc5cccc(c45)C3=O)CC2)cc1 [CBK074518] | 88.8 | –
63 | COc1cc(CN2CCN(Cc3ccco3)CC2)cc(OC)c1OC [CBK074520G] | 88.2 | –
